Data from ChEMBL document CHEMBL1201862, “PubChem BioAssay data set” (2004).
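Test compounds were applied to cells in 96-well plates for 48 hours at 5 doses. At the GI50, growth is halved.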 Active and inactive are the calls of the source. No stated cut-off is given here; in the data, active = GI50 up to about 1.1 µM and inactive = higher.

Legend:
Assay in all cases: DTP human tumour cell line panel, 48 h
DU-145 = tested on: DU-145
HOP-62 = tested on: HOP-62
HOP-92 = tested on: HOP-92
IGROV-1 = tested on: IGROV-1
MDA-MB-231 = tested on: MDA-MB-231
MDA-MB-435 = tested on: MDA-MB-435
MOLT-4 = tested on: MOLT-4
NCI-H23 = tested on: NCI-H23
NCI-H460 = tested on: NCI-H460
OVCAR-5 = tested on: OVCAR-5
OVCAR-8 = tested on: OVCAR-8
RXF 393 = tested on: RXF 393
SK-MEL-2 = tested on: SK-MEL-2
SK-MEL-5 = tested on: SK-MEL-5
SNB-19 = tested on: SNB-19
T47D = tested on: T47D
UACC-257 = tested on: UACC-257
UO-31 = tested on: UO-31
CCRF-CEM = tested on: CCRF-CEM
HL-60 = tested on: HL-60

Compound | GI50 (DU-145) | GI50 (HOP-62) | GI50 (HOP-92) | GI50 (IGROV-1) | GI50 (MDA-MB-231) | GI50 (MDA-MB-435) | GI50 (MOLT-4) | GI50 (NCI-H23) | GI50 (NCI-H460) | GI50 (OVCAR-5) | GI50 (OVCAR-8) | GI50 (RXF 393) | GI50 (SK-MEL-2) | GI50 (SK-MEL-5) | GI50 (SNB-19) | GI50 (T47D) | GI50 (UACC-257) | GI50 (UO-31) | GI50 (CCRF-CEM) | GI50 (HL-60)
CN1C(=O)[C@@H]2N(CSC2(C)C)C1=S | > 100 µM (inactive) | > 100 µM (inactive) | 98.6 µM (inactive) | > 100 µM (inactive) | > 100 µM (inactive) | > 100 µM (inactive) | > 100 µM (inactive) | > 100 µM (inactive) | > 100 µM (inactive) | > 100 µM (inactive) | > 100 µM (inactive) | > 100 µM (inactive) | > 100 µM (inactive) | 4.47 µM (inactive) | > 100 µM (inactive) | > 100 µM (inactive) | > 100 µM (inactive) | > 100 µM (inactive) |  | 
O=C(Oc1ccc2c(c1)CN(Cc1ccccc1)CO2)c1ccccc1 | 17.9 µM (inactive) | 18.4 µM (inactive) | 12.7 µM (inactive) | 13.3 µM (inactive) | 19.2 µM (inactive) | 21.8 µM (inactive) | 10.7 µM (inactive) | 15.8 µM (inactive) | 18.7 µM (inactive) | 18.3 µM (inactive) | 16.7 µM (inactive) | 15.2 µM (inactive) | 22 µM (inactive) | 17.1 µM (inactive) | 18.7 µM (inactive) | 21.7 µM (inactive) | 15.1 µM (inactive) | 17.7 µM (inactive) | 10.6 µM (inactive) | 
S=C(N/N=C\C=N/NC(=S)N1CCCCC1)N1CCCCC1 | 0.202 µM (active) | 0.203 µM (active) | 3.23 µM (inactive) | 0.664 µM (active) | > 96.2 µM (inactive) | 1.01 µM (active) |  | 1.16 µM (inactive) | < 0.0151 µM (active) | > 29.3 µM (inactive) | 0.178 µM (active) | 0.296 µM (active) |  | 0.37 µM (active) | 0.41 µM (active) | 0.287 µM (active) | 1.25 µM (inactive) | 0.195 µM (active) |  | 
CCOC(=O)c1[nH]cc(C)c1-c1cccn1-c1ccc(Cl)cc1[N+](=O)[O-] | 35.1 µM (inactive) | 18.6 µM (inactive) | 17.9 µM (inactive) | 14.7 µM (inactive) | 8.24 µM (inactive) | 19.6 µM (inactive) | 17.1 µM (inactive) | 23.9 µM (inactive) | 18.8 µM (inactive) | 23.2 µM (inactive) | 20.8 µM (inactive) | 13.7 µM (inactive) | 15.9 µM (inactive) | 14.9 µM (inactive) |  | 31 µM (inactive) | 20.1 µM (inactive) | 15.7 µM (inactive) | 25.6 µM (inactive) | 
COC(=O)N/N=C(\c1ccccc1)c1ccc(OC)cc1 | > 100 µM (inactive) |  |  | 59.6 µM (inactive) | > 100 µM (inactive) | 76.7 µM (inactive) | > 100 µM (inactive) | > 100 µM (inactive) | > 100 µM (inactive) | > 100 µM (inactive) | > 100 µM (inactive) | > 100 µM (inactive) | > 100 µM (inactive) | > 100 µM (inactive) | > 100 µM (inactive) | > 100 µM (inactive) | > 100 µM (inactive) | 35.1 µM (inactive) | > 100 µM (inactive) | > 100 µM (inactive)
Cn1nnnc1SC(F)(F)c1nc2ccccc2o1 | > 100 µM (inactive) | > 100 µM (inactive) | > 100 µM (inactive) | > 100 µM (inactive) | > 100 µM (inactive) | > 100 µM (inactive) | 24.1 µM (inactive) | > 100 µM (inactive) | > 100 µM (inactive) | > 100 µM (inactive) | > 100 µM (inactive) | > 100 µM (inactive) | > 100 µM (inactive) | > 100 µM (inactive) |  | > 100 µM (inactive) | > 100 µM (inactive) | > 100 µM (inactive) | 25.1 µM (inactive) | 
CC1(C)[N+]([O-])=[N+]([O-])C1(C)O (stereo not given) | > 100 µM (inactive) |  |  | > 100 µM (inactive) | > 100 µM (inactive) | > 100 µM (inactive) | > 100 µM (inactive) | > 100 µM (inactive) | > 100 µM (inactive) | > 100 µM (inactive) | > 100 µM (inactive) | > 100 µM (inactive) | > 100 µM (inactive) | > 100 µM (inactive) | > 100 µM (inactive) | > 100 µM (inactive) | > 100 µM (inactive) | > 100 µM (inactive) | > 100 µM (inactive) | > 100 µM (inactive)
C=C1CCCC(C)(C)[C@H]1C/C=C1\CCOC1=O | 13.2 µM (inactive) | 17.6 µM (inactive) | 12.1 µM (inactive) | 14.2 µM (inactive) | 17.7 µM (inactive) | 10.3 µM (inactive) | 10.6 µM (inactive) | 14.2 µM (inactive) | 11.8 µM (inactive) |  | 17.7 µM (inactive) |  | 63.7 µM (inactive) | 10.2 µM (inactive) | 16.8 µM (inactive) | 54.2 µM (inactive) | 12.1 µM (inactive) | 16.1 µM (inactive) | 21.6 µM (inactive) | 11.5 µM (inactive)
CCOC(=O)/C=C(/C(=O)OCC)n1cnc2c(=O)[nH]c(NC(C)=O)nc21 | > 100 µM (inactive) | > 100 µM (inactive) | > 100 µM (inactive) | > 100 µM (inactive) | > 100 µM (inactive) | > 100 µM (inactive) | > 100 µM (inactive) | > 100 µM (inactive) | > 100 µM (inactive) | > 100 µM (inactive) | > 100 µM (inactive) |  | > 100 µM (inactive) | > 100 µM (inactive) | > 100 µM (inactive) | > 100 µM (inactive) | > 100 µM (inactive) | > 100 µM (inactive) | > 100 µM (inactive) | > 100 µM (inactive)
CN1CN(c2ccccc2)C2(CCN(CCCN(C)c3ccc(F)cc3)CC2)C1=O | 23.9 µM (inactive) | 17.7 µM (inactive) |  | 16.5 µM (inactive) | 14.3 µM (inactive) | 18.2 µM (inactive) | 5.02 µM (inactive) | 19.1 µM (inactive) | 16.4 µM (inactive) | 17.3 µM (inactive) | 18.9 µM (inactive) | 16.3 µM (inactive) | 17.5 µM (inactive) | 16.2 µM (inactive) | 20 µM (inactive) | 16.7 µM (inactive) | 17.8 µM (inactive) | 16.2 µM (inactive) | 11.2 µM (inactive) | 3.21 µM (inactive)
NC(Cc1ccccc1)C(=O)OCN1C(=O)C2C3C=CC(C2C1=O)C1C(=O)N(COC(=O)C(N)Cc2ccccc2)C(=O)C31 (stereo not given) | > 100 µM (inactive) | > 100 µM (inactive) |  | > 100 µM (inactive) | 78 µM (inactive) | > 100 µM (inactive) | 22.4 µM (inactive) | 66.2 µM (inactive) | 67.9 µM (inactive) | > 100 µM (inactive) | > 100 µM (inactive) | > 100 µM (inactive) | 22.6 µM (inactive) | 49.8 µM (inactive) | > 100 µM (inactive) | > 100 µM (inactive) | 75.2 µM (inactive) | > 100 µM (inactive) | 21.7 µM (inactive) | 17.4 µM (inactive)
CC(=O)O/N=C1\C=Cc2c(no[n+]2[O-])C1=O | 17.9 µM (inactive) | 38.3 µM (inactive) |  | 16.4 µM (inactive) | 18.9 µM (inactive) | 20.6 µM (inactive) | 10.4 µM (inactive) | 20 µM (inactive) | 34.7 µM (inactive) | 18.3 µM (inactive) | 12.3 µM (inactive) | 15.2 µM (inactive) | 17.8 µM (inactive) | 17.5 µM (inactive) | > 100 µM (inactive) | 25.6 µM (inactive) | 18.2 µM (inactive) | 15.1 µM (inactive) | 3.65 µM (inactive) | 
CC1CC(=O)Nc2ccc(/N=N/N(C)C)cc2N1C=O (stereo not given) | > 100 µM (inactive) | > 100 µM (inactive) |  | > 100 µM (inactive) | > 100 µM (inactive) | > 100 µM (inactive) | > 100 µM (inactive) | > 100 µM (inactive) | > 100 µM (inactive) | > 100 µM (inactive) | > 100 µM (inactive) | > 100 µM (inactive) | > 100 µM (inactive) | > 100 µM (inactive) | > 100 µM (inactive) | > 100 µM (inactive) | > 100 µM (inactive) | > 100 µM (inactive) | > 100 µM (inactive) | 
COc1c(O)c(OC)c(C(=O)/C=C/c2ccccc2)c(O)c1OC [PEDICIN] | 29.1 µM (inactive) |  | 21.2 µM (inactive) | 21.3 µM (inactive) | 21.3 µM (inactive) | 27.9 µM (inactive) | 30.5 µM (inactive) |  | 19.1 µM (inactive) | 58.9 µM (inactive) | 17.9 µM (inactive) |  | 24.9 µM (inactive) | 20.4 µM (inactive) | 92 µM (inactive) | 20.9 µM (inactive) | > 100 µM (inactive) |  | 94.6 µM (inactive) | 58.2 µM (inactive)
CN(C)Cc1cc(C(=O)/C=C/c2ccc(Cl)cc2)cc(CN(C)C)c1O | 12.1 µM (inactive) | 4.36 µM (inactive) |  | 12.5 µM (inactive) | 11.4 µM (inactive) | 13.7 µM (inactive) | 16.3 µM (inactive) | 15.7 µM (inactive) | 10.1 µM (inactive) | 24.2 µM (inactive) | 7.59 µM (inactive) | 10.9 µM (inactive) |  | 11.4 µM (inactive) | 8.75 µM (inactive) | 27 µM (inactive) | 15.6 µM (inactive) | 7.4 µM (inactive) | 14.4 µM (inactive) | 2.86 µM (inactive)
